According to the supplement of paper PMC10307832:

Tests used:
Assay in all cases: relative viability (nuclei count vs DMSO), 5 days (fraction); higher = more cells survive
[1] = compound: CN(NC(=O)CC(=O)NN(C)C(=S)c1ccccc1)C(=S)c1ccccc1 [Elesclomol]
In short: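 Viability was read as treated-well nuclei divided by vehicle-well nuclei, using the median across plates. Lung cancer cell lines in 1536-well plates were kept overnight at 37 °C, pinned with five √10-spaced library-drug doses, and after 5 days were Hoechst-stained, imaged at 4× and counted in MetaXpress. Plates passed only with control CV below 25% and at least one doubling.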

[2] = compound: CN(NC(=O)CC(=O)NN(C)C(=S)c1ccccc1)C(=S)c1ccccc1 [Elesclomol] + CS(=O)(=O)CCNCc1ccc(-c2ccc3ncnc(Nc4ccc(OCc5cccc(F)c5)c(Cl)c4)c3c2)o1 [Lapatinib] (partner 2 µM)
In short: (§1)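 Relative viability divides the nuclei count in treated wells by that in vehicle wells. Lung cancer cell lines were seeded in 1536-well plates, dosed by pin tool the next day, and fixed and stained after 5 days in one step with final 0.05% Triton X-100, 1% formaldehyde and 1 ug/ml Hoechst. Dosing was a single drug or a fixed anchor-drug dose plus five library-drug doses (not always all listed) in √10 steps, and values are medians of duplicate plates imaged at 4×.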

[3] = compound: CN(NC(=O)CC(=O)NN(C)C(=S)c1ccccc1)C(=S)c1ccccc1 [Elesclomol] + NC(=O)Nc1cc(-c2cccc(F)c2)sc1C(=O)N[C@H]1CCCNC1 [AZD7762] (partner 0.2 µM)
In short: as §1

[4] = compound: CN(NC(=O)CC(=O)NN(C)C(=S)c1ccccc1)C(=S)c1ccccc1 [Elesclomol] + O=C(CCCCCCC(=O)Nc1ccccc1)NO [Vorinostat] (partner 1 µM)
In short: as §1

[5] = compound: CN(NC(=O)CC(=O)NN(C)C(=S)c1ccccc1)C(=S)c1ccccc1 [Elesclomol] + CC(=O)Nc1cccc(-n2c(=O)n(C3CC3)c(=O)c3c(Nc4ccc(I)cc4F)n(C)c(=O)c(C)c32)c1 [Trametinib] (partner 0.02 µM)
In short: as §1

Cell Line | relative viability ([1]; 0.003162 µM) | relative viability ([1]; 0.01 µM) | relative viability ([1]; 0.03162 µM) | relative viability ([1]; 0.1 µM) | relative viability ([2]; first compound 0.003162 µM) | relative viability ([2]; first compound 0.01 µM) | relative viability ([2]; first compound 0.03162 µM) | relative viability ([2]; first compound 0.1 µM) | relative viability ([3]; first compound 0.003162 µM) | relative viability ([3]; first compound 0.01 µM) | relative viability ([3]; first compound 0.03162 µM) | relative viability ([3]; first compound 0.1 µM) | relative viability ([4]; first compound 0.003162 µM) | relative viability ([4]; first compound 0.01 µM) | relative viability ([4]; first compound 0.03162 µM) | relative viability ([4]; first compound 0.1 µM) | relative viability ([5]; first compound 0.003162 µM) | relative viability ([5]; first compound 0.01 µM) | relative viability ([5]; first compound 0.03162 µM) | relative viability ([5]; first compound 0.1 µM)
ABC-1 | 0.239 | 0.252 | 0.201 | 0.328 | 0.935 | 0.477 | 0.466 | 0.42 | 0.294 | 0.252 | 0.309 | 0.236 | 0.426 | 0.249 | 0.262 | 0.244 | – | – | – | –
NCI-H1703 | 0.273 | 0.173 | 0.0832 | 0.101 | 0.262 | 0.216 | 0.157 | 0.129 | 0.132 | 0.0974 | 0.124 | 0.0978 | – | – | – | – | – | – | – | –
COR-L 105 | 0.85 | 0.472 | 0.344 | 0.221 | 0.341 | 0.291 | 0.283 | 0.246 | – | – | – | – | 1 | 0.57 | 0.361 | 0.336 | 0.465 | 0.478 | 0.316 | 0.311
NCI-H661 | 0.91 | 0.807 | 0.374 | 0.298 | 0.368 | 0.205 | 0.236 | 0.186 | – | – | – | – | 0.768 | 0.565 | 0.304 | 0.26 | 0.565 | 0.404 | 0.314 | 0.244
NCI-H1650 | 0.394 | 0.281 | 0.16 | 0.114 | 0.38 | 0.277 | 0.184 | 0.17 | – | – | – | – | 0.3 | 0.22 | 0.146 | 0.11 | 0.202 | 0.188 | 0.116 | 0.102
SW 1573 | 0.795 | 0.267 | 0.121 | 0.0819 | 1.04 | 0.517 | 0.185 | 0.135 | – | – | – | – | 0.331 | 0.107 | 0.112 | 0.0259 | 0.192 | 0.115 | 0.0701 | 0.0281
UMC-11 | 1.05 | 0.939 | 0.709 | 0.612 | 0.952 | 0.837 | 0.505 | 0.328 | – | – | – | – | 0.391 | 0.333 | 0.411 | 0.255 | 0.703 | 0.653 | 0.407 | 0.369
LCLC-103H | 1 | 0.856 | 0.993 | 0.842 | – | – | – | – | 0.817 | 0.639 | 0.863 | 0.692 | 0.82 | 0.496 | 0.877 | 0.568 | 0.637 | 0.671 | 0.686 | 0.683
NCI-H2342 | 0.865 | 1.02 | 0.571 | 0.612 | – | – | – | – | 0.385 | 0.461 | 0.4 | 0.441 | 0.732 | 0.8 | 0.757 | 0.771 | 0.877 | 0.839 | 0.756 | 0.616
NCI-H520 | 1.03 | 0.87 | 0.584 | 0.134 | 0.91 | 0.666 | 0.373 | 0.0913 | – | – | – | – | 0.775 | 0.662 | 0.225 | 0.0994 | 0.789 | 0.65 | 0.301 | 0.137
SW 900 | 0.871 | 0.701 | 0.251 | 0.0829 | – | – | – | – | 0.709 | 0.54 | 0.272 | 0.103 | 0.522 | 0.345 | 0.234 | 0.111 | 0.902 | 0.399 | 0.197 | 0.14
NCI-H522 | 1.03 | 0.877 | 0.801 | 0.53 | – | – | – | – | 0.955 | 0.857 | 0.756 | 0.518 | 0.927 | 0.888 | 0.862 | 0.604 | 0.698 | 0.792 | 0.821 | 0.403
NCI-H2023 | 0.907 | 0.305 | 0.204 | 0.0874 | 0.384 | 0.266 | 0.0556 | 0.0486 | – | – | – | – | 0.418 | 0.0842 | 0.0465 | 0.0461 | 0.469 | 0.149 | 0.0579 | 0.045
NCI-H441 | 1.06 | 0.945 | 0.55 | 0.179 | – | – | – | – | 1.14 | 1.07 | 1.02 | 0.203 | 0.553 | 0.729 | 0.445 | 0.17 | 0.498 | 0.456 | 0.418 | 0.0766
NCI-H2228 | 0.923 | 0.881 | 0.435 | 0.078 | 0.953 | 0.66 | 0.33 | 0.103 | – | – | – | – | 0.628 | 0.177 | 0.125 | 0.0717 | 0.573 | 0.228 | 0.177 | 0.0514
NCI-H1792 | 0.916 | 0.51 | 0.762 | 0.513 | 0.867 | 0.841 | 0.807 | 0.932 | 0.666 | – | 0.608 | 0.257 | – | – | – | – | 0.367 | – | 0.366 | 0.267
IA-LM | 0.855 | 0.374 | 0.0911 | 0.0299 | 0.658 | 0.201 | 0.121 | 0.0621 | – | – | – | – | 0.863 | 0.858 | 0.999 | 0.847 | – | – | – | –
NCI-H1563 | 0.786 | 0.675 | 0.651 | 0.542 | 0.625 | 0.562 | 0.601 | 0.458 | – | – | – | – | – | – | – | – | – | – | – | –
